According to US20050276867A1, “Stabilized compositions comprising a therapeutically active agent and an oxidizing preservative” (ALLERGAN, INC., priority 2004, published 2005):

Columns and labels:
[1] = for Stabilized Chlorine Dioxide Concentration, 0 Days / Stabilized Chlorine Dioxide Concentration, 7 Days / Stabilized Chlorine Dioxide Concentration, 14 Days: ingredient added at ppm shown (100) to brimonidine composition; for Stabilization of chlorine dioxide by the excipient (in words): summary of Table 1
Description: Each of the excipients was added, in the amounts shown, to a proprietary composition comprising brimonidine as a therapeutically active agent.

[2] = chlorine dioxide to ClO2-; permanganate to manganese dioxide; cited from earlier work

Compound | Stabilized Chlorine Dioxide Concentration, 0 Days [1] [ppm] | Stabilized Chlorine Dioxide Concentration, 7 Days [1] [ppm] | Stabilized Chlorine Dioxide Concentration, 14 Days [1] [ppm] | Stabilization of chlorine dioxide by the excipient (in words) [1] | Standard reduction potential [2] [V]
O=C([O-])/C(O)=C(\O)C(=O)[O-].[Na+].[Na+] [Sodium Dihydroxyfurmarate] | 37 | 13 | 0 | – | –
CC(=O)C(=O)[O-].[Na+] [Sodium Pyruvate] | – | – | – | ineffective | –
O=C[O-].[Na+] [Sodium Formate] | 42 | 40 | 36 | – | –
NCCN [Ethylene diamine] | – | – | – | do not stabilize the chlorine dioxide | –
O=C([O-])C(=O)[O-].[Na+].[Na+] [Sodium Oxalate] | 39 | 38 | 35 | ineffective | –
O=C(O)CN(CCN(CC(=O)O)CC(=O)O)CC(=O)O [EDTA] | 44 | 2 | 0 | do not stabilize the chlorine dioxide | –
[O][Cl+][O-] [chlorine dioxide] | – | – | – | – | 1.07
CC(O)C(=O)[O-].[Na+] (centres unmarked) [Sodium Lactate] | 45 | 40 | 37 | – | –
